# Source: patent EP4385979A1 (Grünenthal GmbH, priority 2022, dated 2024)
# Biological target: T1, human NaV1.8 (Homo sapiens, UniProt Q9Y5Y9)
# T1 construct: expressed in transfected cells; host or cells: HEK
# Experiment: Electrophysiology: voltage-clamp recordings, whole-cell patch clamp on Qube384 automated platform
# Assay type: cell-based
# Details: HEK-NaV1.8 (NM 006514.1) with b3 recombinant cell line, multi hole plates, ambient room temperature, read-out: Potency category (human NaV1.8 IC50)
# Protocol: Electrophysiology: Voltage-Clamp recordings
# The following NaV1.8 recombinant cell line was used for recordings: HEK-NaV1.8 (NM 006514.1) with b3 (NM_018400.3).
# Sodium currents were measured using the patch clamp technique in the whole-cell configuration using the Qube384 (Sophion A/S, Copenhagen, Denmark) automated voltage clamp platform. "Multi hole" plates were used for the cell line expressing NaV1.8 while "single hole" plates were used for the recombinant cell lines expressing the other subtypes. Appropriate filters (for minimum seal resistance and minimum current size) and series resistance compensation (for high quality sodium channel recordings) were applied. Data was collected at ambient room temperature.
# The recording […] solution contained (in mM): NaCl 145 mM, KCl 4 mM, CaCl2 2 mM, MgCl2 1 mM, HEPES 10 mM, Glucose 10 mM, pH 7.4 (NaOH). The […] recording solution contained (in mM): CsF 120 mM, CsCl 20 mM, NaCl 10 mM, EGTA 10 mM, HEPES 10 mM, pH 7.2 (CsOH). Currents were recorded at 25 kHz sampling frequency and filtered at 5 kHz. Series resistance compensation was applied at 65%.
# Vehicle (VEH) is the control condition where cells are exposed to 0.3 % DMSO without compound. All runs include VEH controls being exposed to the same voltage protocols to assess non-compound related phenomena such as run down and then used to isolate compound dependent effects on currents.
# To check for state-dependence inhibition, the following voltage-sequence was applied every 20 seconds: From a resting membrane potential of-120 mV, the first test pulse (P1; 20 ms to -10 mV) was applied to check for channels in the Resting State followed by a brief recovery (20 ms to -120 mV), then holding the membrane voltage to V1/2 (4 seconds at voltage to obtain half the channel at Rest and half Inactivated) with a subsequent second test pulse (P2; 20 ms to -10 mV) to check for channels in the Inactivated State, followed by another brief recovery (20 ms to -120 mV) and a final third test pulse (P3; 20 ms to -10 mV) to check for recovered channels.
# To check for frequency-dependent inhibition, a 10 Hz protocol and a 20 Hz protocol were applied; namely,
# From a resting membrane potential of -120 mV, 40-pulses (10 ms to -10 mV) was applied at 10 Hz (at 100 ms between pulses) and then at 20 Hz (at 50 ms between pulses). Each parameter was recorded (P1, P2, P3, P40 from 10Hz and P40 from 20Hz) during a control period (lasting ~ 5 minutes) when establishing the baseline and during compound period (lasting ~ 12 minutes) when test compound (or vehicle) was applied. For each parameter, the value at the end of the compound period was normalized to the vehicle baseline; as follows Normalized Inhibition (NormCPD) = (CPD Valueend CPD period)/(VEH Valueend Control Period) [formula]
# To adjust for any variance in the Na^+ current signal during the compound period (owing to cumulative inactivation independent of compound or shifts in biophysics over time), a dedicated segment of the recording wells in each 384 plate were dedicated to having only vehicle exposure. These vehicle-only recordings were used to correct for any apparent "run-up" or "run-down" in the experiment. Normalized Inhibition (NormVEH) = (VEH Valueend CPD period)/(VEH Valueend Control Period) [formula]
# The adjusted inhibition was calculated as follows: % Inhibitioncorrected = 100 × (NormCPD −NormVEH)/(100−NormVEH) [formula]
# Percent inhibition was determined and IC50 values were calculated using a 4 parameter logistic model within XLFit Software (IDBS, Boston MA): % Inhibitioncorrected = A + ((B−A))/((1 + (((x)/(C)))^D) [formula] where A and B are the maximal and minimum inhibition respectively, C is the IC50 concentration and D is the (Hill) slope.
# T1 sequence (Q9Y5Y9 whole entry): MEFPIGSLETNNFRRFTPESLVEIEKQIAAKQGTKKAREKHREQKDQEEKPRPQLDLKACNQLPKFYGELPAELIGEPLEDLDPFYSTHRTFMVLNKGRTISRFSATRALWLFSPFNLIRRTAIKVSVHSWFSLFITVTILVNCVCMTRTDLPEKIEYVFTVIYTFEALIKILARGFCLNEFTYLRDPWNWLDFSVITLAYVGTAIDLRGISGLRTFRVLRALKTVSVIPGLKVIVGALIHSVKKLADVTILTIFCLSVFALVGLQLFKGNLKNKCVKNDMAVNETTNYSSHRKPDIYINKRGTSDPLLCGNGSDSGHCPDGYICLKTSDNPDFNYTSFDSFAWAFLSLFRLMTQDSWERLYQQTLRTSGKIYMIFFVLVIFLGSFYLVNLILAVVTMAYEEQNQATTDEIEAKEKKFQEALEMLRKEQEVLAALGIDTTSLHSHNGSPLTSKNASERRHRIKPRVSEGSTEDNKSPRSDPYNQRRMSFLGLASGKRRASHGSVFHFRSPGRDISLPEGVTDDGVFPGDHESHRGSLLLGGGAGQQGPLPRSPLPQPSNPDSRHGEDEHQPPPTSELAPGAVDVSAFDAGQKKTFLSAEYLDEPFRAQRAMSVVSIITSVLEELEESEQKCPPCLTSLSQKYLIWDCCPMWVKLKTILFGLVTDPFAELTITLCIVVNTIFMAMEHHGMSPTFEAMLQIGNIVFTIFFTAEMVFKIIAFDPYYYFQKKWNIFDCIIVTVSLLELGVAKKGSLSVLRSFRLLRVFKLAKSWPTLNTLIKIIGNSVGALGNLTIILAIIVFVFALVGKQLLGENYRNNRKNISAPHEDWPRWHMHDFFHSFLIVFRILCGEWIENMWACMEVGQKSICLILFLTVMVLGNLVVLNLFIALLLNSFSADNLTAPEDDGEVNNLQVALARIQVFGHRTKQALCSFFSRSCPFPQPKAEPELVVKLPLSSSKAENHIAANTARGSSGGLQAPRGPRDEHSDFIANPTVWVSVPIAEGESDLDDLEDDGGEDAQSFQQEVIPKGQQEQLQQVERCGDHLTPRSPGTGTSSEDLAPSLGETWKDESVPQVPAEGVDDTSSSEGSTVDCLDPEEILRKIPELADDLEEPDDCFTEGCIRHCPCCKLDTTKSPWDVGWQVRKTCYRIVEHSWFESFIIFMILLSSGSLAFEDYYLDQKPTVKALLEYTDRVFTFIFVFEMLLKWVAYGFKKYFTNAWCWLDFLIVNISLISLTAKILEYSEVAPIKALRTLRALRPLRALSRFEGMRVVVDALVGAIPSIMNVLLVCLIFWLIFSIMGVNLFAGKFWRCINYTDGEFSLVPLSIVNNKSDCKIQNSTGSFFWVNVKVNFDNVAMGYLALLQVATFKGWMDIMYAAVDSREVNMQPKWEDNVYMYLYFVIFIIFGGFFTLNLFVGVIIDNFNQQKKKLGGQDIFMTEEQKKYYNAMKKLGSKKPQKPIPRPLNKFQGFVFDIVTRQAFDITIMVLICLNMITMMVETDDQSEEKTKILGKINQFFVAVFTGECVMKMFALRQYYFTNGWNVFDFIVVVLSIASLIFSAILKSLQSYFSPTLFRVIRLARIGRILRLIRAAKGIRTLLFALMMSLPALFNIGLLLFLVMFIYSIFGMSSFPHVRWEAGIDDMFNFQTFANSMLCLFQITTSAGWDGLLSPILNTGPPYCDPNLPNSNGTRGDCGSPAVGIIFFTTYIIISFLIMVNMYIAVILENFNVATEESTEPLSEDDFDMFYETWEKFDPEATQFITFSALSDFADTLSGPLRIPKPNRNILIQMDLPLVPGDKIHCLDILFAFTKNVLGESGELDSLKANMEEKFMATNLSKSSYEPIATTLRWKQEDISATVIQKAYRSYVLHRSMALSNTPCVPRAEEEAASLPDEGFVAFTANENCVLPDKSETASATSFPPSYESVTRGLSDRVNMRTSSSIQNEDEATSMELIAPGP
row,IC50 [nM],Compound
1,≤ 100,"NC(=O)c1cc(NC(=O)c2c(C(F)(F)F)c(C3CC3)nn2CC23CC(C(F)(F)F)(C2)C3)ccn1 [Example 9, 4-(3-cyclopropyl-4-(trifluoromethyl)-1-((3-(trifluoromethyl)bicyclo [1.1.1]pentan-1-yl)methyl)-1H-pyrazole-5-carboxamido)picolinamide]"
2,100 to 1000,"CC1(C)CC(Cn2nc(C3CC3)c(C(F)(F)F)c2C(=O)Nc2ccnc(C(N)=O)c2)O1 (single isomer, unassigned) [Example 17a, 4-(3-cyclopropyl-1-((4,4-dimethyloxetan-2-yl)methyl)-4-(trifluoromethyl)-1H-pyrazole-5-carboxamido)picolinamide]"
3,100 to 1000,"COC12CC(Cn3nc(C4CC4)c(C(F)(F)F)c3C(=O)Nc3ccnc(C(N)=O)c3)(C1)C2 [Example 14, 4-(3-cyclopropyl-1-((3-methoxybicyclo[1.1.1]pentan-1-yl)methyl)-4-(trifluoromethyl)-1H-pyrazole-5-carboxamido)picolinamide]"
4,≤ 100,"CC12COC(Cn3nc(C4CC4)c(C(F)(F)F)c3C(=O)Nc3ccnc(C(N)=O)c3)(C1)C2 [Example 16, 4-(3-cyclopropyl-1-((4-methyl-2-oxabicyclo[2.1.1]hexan-1-yl)methyl)-4-(trifluoromethyl)-1H-pyrazole-5-carboxamido)picolinamide]"
5,≤ 100,"NS(=O)(=O)c1cccc(NC(=O)c2c(C(F)(F)F)cnn2CC23CCC(C2)C3)c1 [Example 35, 1-(bicyclo[2.1.1]hexan-1-ylmethyl)-N-(3-sulfamoylphenyl)-4-(trifluoromethyl)-1H-pyrazole-5-carboxamide]"
6,100 to 1000,"CC12CC(Cn3nc(C4CC4)c(C(F)(F)F)c3C(=O)Nc3ccnc(S(C)(=O)=O)c3)(CO1)C2 [Example 23, 3-cyclopropyl-1-((1-methyl-2-oxabicyclo[2.1.1]hexan-4-yl)methyl)-N-(2-(methylsulfonyl)pyridin-4-yl)-4-(trifluoromethyl)-1H-pyrazole-5-carboxamide]"
7,≤ 100,"Cc1c(C(C)(F)F)nn(CC2(C)CC(F)(F)CC2C)c1C(=O)Nc1ccnc(C(N)=O)c1 (single isomer, unassigned) [Example 10d, 4-(1-((4,4-difluoro-1,2-dimethylcyclopentyl)methyl)-3-(1,1-difluoroethyl)-4-methyl-1H-pyrazole-5-carboxamido)picolinamide]"
8,100 to 1000,"CC12COC(Cn3nc(C4CC4)c(C(F)(F)F)c3C(=O)Nc3ccnc(S(C)(=O)=O)c3)(C1)C2 [Example 19, 3-cyclopropyl-1-((4-methyl-2-oxabicyclo[2.1.1]hexan-1-yl)methyl)-N-(2-(methylsulfonyl)pyridin-4-yl)-4-(trifluoromethyl)-1H-pyrazole-5-carboxamide]"
9,≤ 100,"Cc1nn(CC23CC(C(F)(F)F)(C2)C3)c(C(=O)Nc2ccnc(C(N)=O)c2)c1C(F)(F)F [Example 18, 4-(3-methyl-4-(trifluoromethyl)-1-((3-(trifluoromethyl)bicyclo [1.1.1]pentan-1-yl)methyl)-1H-pyrazole-5-carboxamido)picolinamide]"
10,≤ 100,"Cc1c(C(C)(F)F)nn(CC2(C)CC(F)(F)CC2C)c1C(=O)Nc1ccnc(S(N)(=O)=O)c1 (single isomer, unassigned) [Example 43a, 1-((4,4-difluoro-1,2-dimethylcyclopentyl)methyl)-3-(1,1-difluoroethyl)-4-methyl-N-(2-sulfamoylpyridin-4-yl)-1H-pyrazole-5-carboxamide]"
11,≤ 100,Cc1c(C(C)(F)F)nn(CC23CC(C(F)(F)F)(C2)C3)c1C(=O)Nc1ccnc(C(N)=O)c1 [Example 4]
12,1000 to 10000,"Cc1nn(CC23CC(CO2)C3)c(C(=O)Nc2cccc(S(N)(=O)=O)c2)c1C(F)(F)F [Example 33, 1-((2-oxabicyclo [2.1.1]hexan-1-yl)methyl)-3-methyl-N-(3-sulfamoylphenyl)-4-(trifluoromethyl)-1H-pyrazole-5-carboxamide]"
13,≤ 100,"Cc1c(C(C)(F)F)nn(CC2(C)CC(F)(F)CC2C)c1C(=O)Nc1ccnc(S(N)(=O)=O)c1 (single isomer, unassigned) [Example 43b, 1-((4,4-difluoro-1,2-dimethylcyclopentyl)methyl)-3-(1,1-difluoroethyl)-4-methyl-N-(2-sulfamoylpyridin-4-yl)-1H-pyrazole-5-carboxamide]"
14,≤ 100,"NC(=O)c1cc(NC(=O)c2c(C(F)(F)F)c(C3CC3)nn2CC23CC(F)(C2)C3)ccn1 [Example 15, 4-(3-cyclopropyl-1-((3-fluorobicyclo [1.1.1]pentan-1-yl)methyl)-4-(trifluoromethyl)-1H-pyrazole-5-carboxamido)picolinamide]"
15,≤ 100,"Cc1c(C(C)(F)F)nn(CC2(C)CC(F)(F)CC2C)c1C(=O)Nc1ccnc(C(N)=O)c1 (single isomer, unassigned) [Example 10a, 4-(1-((4,4-difluoro-1,2-dimethylcyclopentyl)methyl)-3-(1,1-difluoroethyl)-4-methyl-1H-pyrazole-5-carboxamido)picolinamide]"
16,1000 to 10000,"CC1(C)CC(Cn2nc(C3CC3)c(C(F)(F)F)c2C(=O)Nc2ccnc(S(C)(=O)=O)c2)O1 (single isomer, unassigned) [Example 22a, 3-cyclopropyl-1-((4,4-dimethyloxetan-2-yl)methyl)-N-(2-(methylsulfonyl)pyridin-4-yl)-4-(trifluoromethyl)-1H-pyrazole-5-carboxamide]"
17,100 to 1000,"CS(=O)(=O)n1cc(NC(=O)c2c(C(F)(F)F)cnn2CC23CCC(C2)C3)cn1 [Example 49, 1-(bicyclo[2.1.1]hexan-1ylmethyl)-N-(1-(methylsulfonyl)-1H-pyrazol-4-yl)-4-(trifluoromethyl)-1H-pyrazole-5-carboxamide]"
18,≤ 100,"Cc1c(C(C)(F)F)nn(CC2(C)CC(F)(F)CC2C)c1C(=O)Nc1ccnc(S(N)(=O)=O)c1 (single isomer, unassigned) [Example 43c, 1-((4,4-difluoro-1,2-dimethylcyclopentyl)methyl)-3-(1,1-difluoroethyl)-4-methyl-N-(2-sulfamoylpyridin-4-yl)-1H-pyrazole-5-carboxamide]"
19,1000 to 10000,"CS(=O)(=O)n1cc(NC(=O)c2c(C(F)(F)F)cnn2CC23CC(C2)C3)cn1 [Example 47, 1-(bicyclo [1.1.1]pentan-1-ylmethyl)-N-(1-(methylsulfonyl)-1H-pyrazol-4-yl)-4-(trifluoromethyl)-1H-pyrazole-5-carboxamide]"

row,Compound,IC50 [nM]
1,"NC(=O)c1cc(NC(=O)c2c(C(F)(F)F)cnn2CC23CC(CO2)C3)ccc1F [Example 37, 1-((2-oxabicyclo[2.1.1]hexan-1-yl)methyl)-N-(3-carbamoyl-4-fluorophenyl)-4-(trifluoromethyl)-1H-pyrazole-5-carboxamide]",1000 to 10000
2,"CC12CC(Cn3ncc(C(F)(F)F)c3C(=O)Nc3cccc(S(N)(=O)=O)c3)(CO1)C2 [Example 31, 1-((1-methyl-2-oxabicyclo[2.1.1]hexan-4-yl)methyl)-N-(3-sulfamoylphenyl)-4-(trifluoromethyl)-1H-pyrazole-5-carboxamide]",1000 to 10000
3,"NS(=O)(=O)c1cccc(NC(=O)c2c(C(F)(F)F)cnn2CC2CC3(CC3)C2)c1 [Example 34, 1-(spiro[2.3]hexan-5-ylmethyl)-N-(3-sulfamoylphenyl)-4-(trifluoromethyl)-1H-pyrazole-5-carboxamide]",100 to 1000
4,NC(=O)c1cc(NC(=O)c2c(C(F)(F)F)c(C3CC3)nn2CC23CC(CO2)C3)ccn1 [Example 3],100 to 1000
